Results as given in US9533987B2, “Heterocyclic derivates” (KALVISTA PHARMACEUTICALS LIMITED, priority 2013, dated 2017).

Legend:
Format in all cases: biochemical
Human plasma kallikrein = Human plasma kallikrein (Homo sapiens (Human), UniProt P03952); assay: Determination of the IC50 for plasma kallikrein (fluorogenic substrate H-DPro-Phe-Arg-AFC); conditions: 37° C., read-out: IC50 (human PKaI)
Method: Determination of the IC50 for Plasma Kallikrein
(§1) Human plasma kallikrein (Protogen) was incubated at 37° C. with the fluorogenic substrate H-DPro-Phe-Arg-AFC and various concentrations of the test compound. Residual enzyme activity (initial rate of reaction) was determined by measuring the change in […] at 410 nm and the IC50 value for the test compound was determined.

Human KLK1 = Human KLK1 (Homo sapiens (Human), UniProt P06870); assay: Determination of the IC50 for KLK1 (fluorogenic substrate H-DVal-Leu-Arg-AFC); conditions: 37° C.
Sequence of Human KLK1 (P06870 25-262): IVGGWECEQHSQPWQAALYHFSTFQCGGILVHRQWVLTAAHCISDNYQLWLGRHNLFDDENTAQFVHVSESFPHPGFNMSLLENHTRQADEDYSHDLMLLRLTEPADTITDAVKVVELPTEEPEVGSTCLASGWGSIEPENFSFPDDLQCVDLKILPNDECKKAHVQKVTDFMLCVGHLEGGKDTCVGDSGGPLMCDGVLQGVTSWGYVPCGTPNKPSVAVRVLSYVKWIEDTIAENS
Method: Determination of the IC50 for KLK1
as §1, with “KLK1 (Callbiochem)” for “plasma kallikrein (Protogen)”, “H-DVal-Leu-Arg-AFC” for “H-DPro-Phe-Arg-AFC”

Factor XIIa = Factor XIIa (Homo sapiens (Human), UniProt P00748); assay: Determination of enzyme selectivity, Factor XIIa; conditions: substrate at Km concentration
Sequence of Factor XIIa (P00748 373-615): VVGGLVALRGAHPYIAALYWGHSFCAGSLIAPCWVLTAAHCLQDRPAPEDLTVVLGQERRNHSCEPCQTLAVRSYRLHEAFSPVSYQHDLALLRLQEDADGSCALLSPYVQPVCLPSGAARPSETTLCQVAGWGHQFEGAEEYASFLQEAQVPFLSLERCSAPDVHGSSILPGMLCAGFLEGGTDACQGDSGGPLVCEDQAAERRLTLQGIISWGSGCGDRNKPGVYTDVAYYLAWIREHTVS
Method: Determination of Enzyme Selectivity
Human serine protease enzymes plasmin, thrombin, trypsin, Factor Xa and Factor XIIa were assayed for enzymatic activity using an appropriate fluorogenic substrate. Protease activity was measured by monitoring the accumulation of liberated fluorescence from the substrate over 5 minutes. The linear rate of fluorescence increase per minute was expressed as percentage (%) activity. The Km for the cleavage of each substrate was determined by standard transformation of the Michaelis-Menten equation.

Sequence of Human plasma kallikrein (P03952 391-638): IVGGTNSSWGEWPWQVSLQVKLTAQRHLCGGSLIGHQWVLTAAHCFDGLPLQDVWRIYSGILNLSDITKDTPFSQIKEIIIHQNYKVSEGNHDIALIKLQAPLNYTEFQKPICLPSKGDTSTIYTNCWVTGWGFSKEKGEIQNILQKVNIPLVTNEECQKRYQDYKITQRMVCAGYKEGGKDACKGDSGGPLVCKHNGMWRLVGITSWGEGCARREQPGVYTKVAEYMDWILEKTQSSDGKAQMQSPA
Sequence of Human plasma kallikrein (P03952 20-390 partner): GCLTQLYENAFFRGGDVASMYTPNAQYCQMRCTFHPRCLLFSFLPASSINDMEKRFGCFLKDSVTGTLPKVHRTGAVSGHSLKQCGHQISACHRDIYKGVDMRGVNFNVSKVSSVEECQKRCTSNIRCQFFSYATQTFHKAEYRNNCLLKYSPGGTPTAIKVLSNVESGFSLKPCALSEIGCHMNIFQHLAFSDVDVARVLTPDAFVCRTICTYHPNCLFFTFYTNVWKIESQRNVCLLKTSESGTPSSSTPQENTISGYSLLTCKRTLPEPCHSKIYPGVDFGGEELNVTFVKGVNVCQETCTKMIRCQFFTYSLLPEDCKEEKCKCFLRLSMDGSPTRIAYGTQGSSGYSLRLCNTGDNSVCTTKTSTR

Molecule | IC50 (Human plasma kallikrein) [µM] | IC50 (Human KLK1) [µM] | IC50 (Factor XIIa) [nM]
1-[4-(4-Methyl-pyrazol-1-ylmethyl)-benzyl]-3-trifluoromethyl-1H-pyrazole-4-carboxylic acid (4,6-dimethyl-1H-pyrrolo[2,3-b]pyridin-5-ylmethyl)-amide [Example 119] | 0.0866 | > 4 | > 4000
Cc1cc(C(=O)NCc2ccc3ccnc(N)c3c2)c(C)n1Cc1csc(-c2ccccc2)n1 [Example 2, 2,5-Dimethyl-1-(2-phenyl-thiazol-4-ylmethyl)-1H-pyrrole-3-carboxylic acid (1-amino-isoquinolin-7-ylmethyl)-amide] | 2.11 | > 10 | > 10000
CCn1c(C(=O)NCc2ccc3c(N)nccc3c2)cc(C)c1Cc1ccc(Cn2ccccc2=O)cc1 [Example 6, 1-Ethyl-4-methyl-5-[4-(2-oxo-2H-pyridin-1-ylmethyl)-benzyl]-1H-pyrrole-2-carboxylic acid (1-amino-isoquinolin-6-ylmethyl)-amide] | 9.46 | 9.46 | > 10000
Cc1cnn(Cc2ccc(Cc3nc(C)c(C(=O)NCc4ccc5c(N)nccc5c4)s3)cc2)c1 [Example 18, 4-Methyl-2-[4-(4-methyl-pyrazol-1-ylmethyl)-benzyl]-thiazole-5-carboxylic acid (1-amino-isoquinolin-6-ylmethyl)-amide] | 0.032 | > 10 | > 10000
Cc1cnn(Cc2ccc(Cn3cc(C(=O)NCc4cc5cc[nH]c5nc4C)cn3)cc2)c1 [Example 22, 1-[4-(4-Methyl-pyrazol-1-ylmethyl)-benzyl]-1H-pyrazole-4-carboxylic acid (6-methyl-1H-pyrrolo[2,3-b]pyridin-5-ylmethyl)-amide] | 0.132 | > 10 | > 10000
CCn1c(C(=O)NCc2ccc3c(N)nccc3c2)cc(C)c1Cc1ccc(Cn2cc(C)cn2)cc1 [Example 28, 1-Ethyl-4-methyl-5-[4-(4-methyl-pyrazol-1-ylmethyl)-benzyl]-1H-pyrrole-2-carboxylic acid (1-amino-isoquinolin-6-ylmethyl)-amide] | 0.0637 | > 10 | > 10000
CCn1c(C(=O)NCc2ccc3c(N)nccc3c2)cc(C)c1Cc1ccc(N2CCCC2)nc1 [Example 30, 1-Ethyl-4-methyl-5-(6-pyrrolidin-1-yl-pyridin-3-ylmethyl)-1H-pyrrole-2-carboxylic acid (1-amino-isoquinolin-6-ylmethyl)-amide] | 1.47 | 5.75 | > 10000
Cc1cnn(Cc2ccc(Cn3nc(C)c(C(=O)NCc4ccc5c(N)nccc5c4)c3C)cc2)c1 [Example 34, 3,5-Dimethyl-1-[4-(4-methyl-pyrazol-1-ylmethyl)-benzyl]-1H-pyrazole-4-carboxylic acid (1-amino-isoquinolin-6-ylmethyl)-amide] | 0.142 | 18.2 | > 40000
Nc1nccc2cc(CNC(=O)c3cnn(CCc4ccc5c(c4)OCCO5)c3)ccc12 [Example 45, 1-[2-(2,3-Dihydro-benzo[1,4]dioxin-6-yl)-ethyl]-1H-pyrazole-4-carboxylic acid (1-amino-isoquinolin-6-ylmethyl)-amide] | 3.06 | 18.6 | > 40000
Cc1nc(C)c(N(C)Cc2ccc(Cn3cc(C(=O)NCc4ccc5c(N)nccc5c4)cn3)cc2)s1 [Example 46, 1-(4-{[(2,4-Dimethyl-thiazol-5-yl)-methyl-amino]-methyl}-benzyl)-1H-pyrazole-4-carboxylic acid (1-amino-isoquinolin-6-ylmethyl)-amide] |  |  | > 40000
Nc1nccc2cc(CNC(=O)c3cnn(Cc4cccc(Oc5ccccc5)n4)c3)ccc12 [Example 47, 1-(6-Phenoxy-pyridin-2-ylmethyl)-1H-pyrazole-4-carboxylic acid (1-amino-isoquinolin-6-ylmethyl)-amide] | 2.03 | 15.8 | > 40000
Nc1nccc2cc(CNC(=O)c3cnn(Cc4cccc(Oc5ncccc5F)c4)c3)ccc12 [Example 48, 1-[3-(3-Fluoro-pyridin-2-yloxy)-benzyl]-1H-pyrazole-4-carboxylic acid (1-amino-isoquinolin-6-ylmethyl)-amide] | 0.82 | 4.32 | > 40000
Nc1nccc2cc(CNC(=O)c3cnn(Cc4ccc(Oc5ccccn5)cc4)c3)ccc12 [Example 49, 1-[4-(Pyridin-2-yloxy)-benzyl]-1H-pyrazole-4-carboxylic acid (1-amino-isoquinolin-6-ylmethyl)-amide] | 0.186 | 8.09 | > 40000
Nc1nccc2cc(CNC(=O)c3cnn(Cc4ccc(COc5cccc(F)n5)cc4)c3)ccc12 [Example 50, 1-[4-(6-Fluoro-pyridin-2-yloxymethyl)-benzyl]-1H-pyrazole-4-carboxylic acid (1-amino-isoquinolin-6-ylmethyl)-amide] | 0.203 | > 40 | > 40000
Cc1cnn(Cc2ccc(Cn3cc(C(=O)NCc4n[nH]c5ccc(Cl)cc45)c(C(F)(F)F)n3)cc2)c1 [Example 127, 1-[4-(4-Methyl-pyrazol-1-ylmethyl)-benzyl]-3-trifluoromethyl-1H-pyrazole-4-carboxylic acid (5-chloro-1H-indazol-3-ylmethyl)-amide] | 0.537 | > 10 | 
O=C(NCc1n[nH]c2ccc(Cl)cc12)c1cn(Cc2ccc(N3CCCC3)nc2)nc1C(F)(F)F [Example 128, 1-(6-Pyrrolidin-1-yl-pyridin-3-ylmethyl)-3-trifluoromethyl-1H-pyrazole-4-carboxylic acid (5-chloro-1H-indazol-3-ylmethyl)-amide] | 0.0249 | > 10 | 

The remaining lines, values ahead:

IC50 (Human plasma kallikrein) [µM] | IC50 (Human KLK1) [µM] | IC50 (Factor XIIa) [nM] | Molecule
0.00214 | 5.16 | > 10000 | Cc1cnn(Cc2ccc(Cn3cc(C(=O)NCc4ccc5c(N)nccc5c4)c(C(C)C)n3)cc2)c1 [Example 13, 3-Isopropyl-1-[4-(4-methyl-pyrazol-1-ylmethyl)-benzyl]-1H-pyrazole-4-carboxylic acid (1-amino-isoquinolin-6-ylmethyl)-amide]
0.00462 | 5.97 | > 10000 | Cc1cnn(Cc2ccc(Cn3cc(C(=O)NCc4ccc5c(N)nccc5c4)c(C4CCC4)n3)cc2)c1 [Example 14, 3-Cyclobutyl-1-[4-(4-methyl-pyrazol-1-ylmethyl)-benzyl]-1H-pyrazole-4-carboxylic acid (1-amino-isoquinolin-6-ylmethyl)-amide]
0.0028 | > 10 | > 10000 | Cc1cnn(Cc2ccc(Cn3cc(C(=O)NCc4ccc5c(N)nccc5c4)nn3)cc2)c1 [Example 33, 1-[4-(4-Methyl-pyrazol-1-ylmethyl)-benzyl]-1H-[1,2,3]triazole-4-carboxylic acid (1-amino-isoquinolin-6-ylmethyl)-amide]
0.00368 | > 10 | > 10000 | Cc1cnn(Cc2ccc(Cn3cc(C(=O)NCc4ccc5c(N)nccc5c4)c(-c4ccccc4)n3)cc2)c1 [Example 35, 1-[4-(4-Methyl-pyrazol-1-ylmethyl)-benzyl]-3-phenyl-1H-pyrazole-4-carboxylic acid (1-amino-isoquinolin-6-ylmethyl)-amide]
0.00067 | 3.53 | > 10000 | Cc1cnn(Cc2ccc(Cn3cc(C(=O)NCc4ccc5c(N)nccc5c4)c(N)n3)cc2)c1 [Example 37, 3-Amino-1-[4-(4-methyl-pyrazol-1-ylmethyl)-benzyl]-1H-pyrazole-4-carboxylic acid (1-amino-isoquinolin-6-ylmethyl)-amide]
0.00127 | 7.84 | > 10000 | COCc1nn(Cc2ccc(Cn3cc(C)cn3)cc2)cc1C(=O)NCc1ccc2c(N)nccc2c1 [Example 38, 3-Methoxymethyl-1-[4-(4-methyl-pyrazol-1-ylmethyl)-benzyl]-1H-pyrazole-4-carboxylic acid (1-amino-isoquinolin-6-ylmethyl)-amide]
0.00168 | 8.05 | > 10000 | Cc1cnn(Cc2ccc(Cn3cc(C(=O)NCc4ccc5c(N)nccc5c4)c(C(F)F)n3)cc2)c1 [Example 39, 3-Difluoromethyl-1-[4-(4-methyl-pyrazol-1-ylmethyl)-benzyl]-1H-pyrazole-4-carboxylic acid (1-amino-isoquinolin-6-ylmethyl)-amide]
0.0039 | 7.09 | > 10000 | Cc1cc(C(=O)NCc2ccc3c(N)nccc3c2)c(C)n1Cc1ccc(Cn2ccccc2=O)cc1 [Example 44, 2,5-Dimethyl-1-[4-(2-oxo-2H-pyridin-1-ylmethyl)-benzyl]-1H-pyrrole-3-carboxylic acid (1-amino-isoquinolin-6-ylmethyl)-amide]
0.00214 | > 10 |  | O=C(NCc1n[nH]c2ccc(Cl)cc12)c1cn(Cc2ccc(Cn3ccccc3=O)cc2)nc1C(F)(F)F [Example 129, 1-[4-(2-Oxo-2H-pyridin-1-ylmethyl)-benzyl]-3-trifluoromethyl-1H-pyrazole-4-carboxylic acid (5-chloro-1H-indazol-3-ylmethyl)-amide]
